Experimental data: US20250213561A1, “SELECTIVE HYPOTHALAMUS PERMEABLE HDAC6 INHIBITORS FOR TREATMENT OF LEPTIN-RESISTANT OBESITY” (The Children’s Medical Center Corporation, priority 2022, published 2025)
Entries after “also recorded” stand apart in the source; their conditions may differ.

Tests used:
[1] = target: HDAC6 (Homo sapiens (Human), UniProt Q9UBN7); conditions: unit printed as AM; unit of the source corrected; cited from earlier work
[2] = in vivo; cited from earlier work
[3] = test system: DIO mice; test: Chronic treatment of DIO mice (body weight, food intake, DEXA, glucose homeostasis); format: in vivo; conditions: 14 days, oral administration
[4] = test system: DIO mice; test: as above; format: in vivo; conditions: high fat diet induced mice
Method: DIO mice were treated with ACY775 (10 mg/kg/day, i.p.) for 3 weeks. Daily body weight (g) of DIO mice treated with vehicle (n=17) or ACY775 (n=17) during 3 weeks of treatment was determined. Daily food intake (g) during 3 weeks of vehicle or ACY775 treatment was assessed. 24 hours' food intake per mouse during the first week of vehicle or ACY775 treatment was determined. Serum leptin (ng/ml) levels after 3 weeks of vehicle (n=24) or ACY775 (n=24) treatment was assessed. Lean mass (g), fat mass (g) and fat percentage (%) after 3 weeks of vehicle (n=17) or ACY775 (n=17) treatment measured by Dual-energy X-ray absorptiometry (DEXA) scan. DEXA scans were performed in two different cohorts. Glucose tolerance test (GTT) after 1 week of vehicle (n=33) or ACY775 (n=26) treated DIO mice was assessed. Area of curve (AOC) analysis for GTT was performed. Blood glucose (mg/dl) levels after 1 week of vehicle (n=17) or ACY775 (n=16) were assessed in treated DIO mice. Insulin tolerance test (ITT) was performed after 2 weeks of vehicle (n=31) or ACY775 (n=21) treatment of DIO mice. Serum insulin (ng/ml) levels were measured after 3 weeks of vehicle (n=22) or ACY775 (n=21) in treated DIO mice. A homeostatic model assessment of insulin resistance (HOMA-IR) was analyzed after 3 weeks of vehicle (n=14) or ACY775 (n=13) treated DIO mice.
Food intake was analyzed hourly until 3:00 am. […] DEXA scans were performed in two different cohorts.
DIO mice then were treated with ricolinostat (50 mg/kg, i.p.) for 3 weeks. Daily body weight (g), daily food intake (g), serum leptin (ng/ml) levels after 3 weeks of vehicle (n-8) or ricolinostat (n=8) treatment, lean mass (g); fat mass and fat percentage (%) after 3 weeks of vehicle (n=16) or ricolinostat (n=17) treatment measured by DEXA scan were determined.
Blood glucose (mg/dl) levels were measured after 1 week of vehicle (n=16) or ricolinostat (n=16) treated DIO mice. GTT after 1 week of vehicle (n=17) or ricolinostat (n=16) treatment of DIO mice was assessed. AOC analysis for GTT was performed. ITT after 2 weeks of vehicle (n=17) or ricolinostat (n=16) treated DIO mice was measured. Serum insulin (ng/ml) levels after 3 weeks of vehicle (n=8) or ricolinostat (n=8) treatment were measured in DIO mice. Liver sections from 3 weeks of vehicle or ricolinostat treated DIO mice were stained by H&E.
DIO mice then were treated with bavarostat (10 mg/kg, i.p.) for 3 weeks and daily body weight (g) of DIO mice treated with Veh (n=9) or bavarostat (n=9) measured during the three weeks of treatment period. Daily food intake (g) during 3 weeks of Veh or bavarostat treatment was also measured.
ACY1083 was administered to DIO mice as described in Example 3.

[5] = Brain/plasma ratio and brain or hypothalamus penetration; conditions: in vivo
[6] = test system: HDAC6-KO DIO mice; test: Chronic treatment of DIO WT versus HDAC6 KO mice; format: in vivo; conditions: DIO mice
[7] = test system: HDAC6 in AgRP neurons; test: DIO mice with HDAC6 depleted in AgRP neurons (HDAC6^Agrp-Δ); format: in vivo; conditions: HDAC6^Agrp-Δ versus HDAC6^WT DIO mice
Method: Design, validation, and stereotaxic injection of AAV viral vector carrying the guide RNAs targeting the mouse HDAC6 genomic locus. Three designed sgRNAs were concatenated and constructed into an AAV vector carrying a cre-enabled mCherry fluorescent marker.
Following the bilateral injection of AAV-sgHDAC6 into the arcuate nucleus of Agrp-ires-cre::LSL-Cas9-GFP (Agrp-Cre^+/−::Cas9^+/−) or control LSL-Cas9-GFP (Cas9^+/−) mice, immunostaining to detect the expression of mCherry and GFP was performed. AAV-sg-HDAC6 injected Agrp-Cre^+/−::Cas9^+/− (HDAC6^Agrp-Δ) and Cas9^+/−(HDAC6^WT) DIO mice (n=7 for each group) were fasted for 24 hours, and injected with ACY775 (10 mg/kg. i.p). Hourly total dark cycle food intake (g) (n=7 for each group) of these mice after ACY775 injection was measured. Body weight of AAV-sg-HDAC6 injected HDAC6^Agrp-Δ (n=11) and HDAC6^WT (n=6) mice were measured during 3 weeks of ACY775 (10 mg/kg/day, i.p.) treatment. Daily average food intake of HDAC6^Agrp-Δ (n=11) and HDAC6^WT (n=6) mice was measured during 3 weeks of ACY775 (10 mg/kg/day, i.p.) treatment. 24-hour food intake average of HDAC6^Agrp-Δ and HDAC6^WT mice during the 3 weeks of ACY775 treatment was assessed. Serum leptin level (ng/ml) of HDAC6^Agrp-Δ and HDAC6^WT mice after 2 weeks of ACY775 treatment (n=13 for HDAC6^WT and n=18 for HDAC6^Agrp-Δ) was measured. Lean mass (g); fat mass; and fat percentage (%) of HDAC6^Agrp-Δ and HDAC6^WT DIO mice after 3 weeks of ACY775 treatment was measured by DEXA scan. The HDAC6 inhibitor responsive neurons in the dorsomedial hypothalamus (DMH) were assessed. Immunostaining and quantification of c-Fos expression was performed in the DMH of DIO mice following one-time ACY775 treatment (10 mg/kg, i.p.).

[8] = test system: DIO mice; conditions: diet-induced obese mice; cited from earlier work

Sequence of HDAC6 (Q9UBN7 whole entry, species assumed): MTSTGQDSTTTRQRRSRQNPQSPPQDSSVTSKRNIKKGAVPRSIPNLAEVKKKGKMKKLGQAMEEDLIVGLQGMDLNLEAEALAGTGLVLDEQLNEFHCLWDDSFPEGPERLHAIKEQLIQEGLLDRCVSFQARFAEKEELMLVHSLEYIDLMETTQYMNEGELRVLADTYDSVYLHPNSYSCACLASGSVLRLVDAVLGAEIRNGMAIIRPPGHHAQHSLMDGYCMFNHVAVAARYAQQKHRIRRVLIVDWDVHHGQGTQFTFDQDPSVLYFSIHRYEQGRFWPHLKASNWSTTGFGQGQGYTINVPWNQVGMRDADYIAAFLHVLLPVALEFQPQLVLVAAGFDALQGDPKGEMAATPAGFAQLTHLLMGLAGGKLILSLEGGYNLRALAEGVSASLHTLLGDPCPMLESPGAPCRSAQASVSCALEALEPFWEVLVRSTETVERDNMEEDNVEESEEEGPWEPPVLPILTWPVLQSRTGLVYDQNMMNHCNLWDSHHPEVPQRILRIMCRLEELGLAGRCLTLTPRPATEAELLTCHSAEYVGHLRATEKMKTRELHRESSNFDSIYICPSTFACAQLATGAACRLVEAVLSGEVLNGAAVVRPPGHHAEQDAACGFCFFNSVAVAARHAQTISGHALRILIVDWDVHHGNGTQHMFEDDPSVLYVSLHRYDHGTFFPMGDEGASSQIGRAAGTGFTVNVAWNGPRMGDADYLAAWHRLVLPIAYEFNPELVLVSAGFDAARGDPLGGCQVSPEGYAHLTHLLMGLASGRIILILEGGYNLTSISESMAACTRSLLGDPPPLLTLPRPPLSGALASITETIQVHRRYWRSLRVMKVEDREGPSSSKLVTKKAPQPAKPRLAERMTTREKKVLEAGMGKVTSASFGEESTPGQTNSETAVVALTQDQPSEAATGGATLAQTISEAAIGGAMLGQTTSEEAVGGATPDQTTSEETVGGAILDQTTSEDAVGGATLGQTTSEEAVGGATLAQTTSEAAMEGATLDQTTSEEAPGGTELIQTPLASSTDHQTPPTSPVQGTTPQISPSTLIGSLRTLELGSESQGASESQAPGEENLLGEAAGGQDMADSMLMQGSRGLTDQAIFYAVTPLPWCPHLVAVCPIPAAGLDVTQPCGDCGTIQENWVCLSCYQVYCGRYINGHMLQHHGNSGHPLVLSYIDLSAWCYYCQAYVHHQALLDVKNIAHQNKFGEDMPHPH

O=C(NO)c1cnc(NC2(c3ccccc3)CCC(F)(F)CC2)nc1 [ACY1083]
HDAC6 IC50 [1]: 3 nM | brain penetrance / BBB permeability [2]: brain-penetrating | body weight [3]: significant decrease in body weight; also recorded: reduced body weight | food intake and total body fat mass (summary) [4]: significant reduction of food intake and total body fat mass

CN1CCc2c(c3ccccc3n2Cc2ccc(C(=O)NO)cc2)C1 [tubastatin A]
penetrance into the hypothalamus [5]: neither of which have high penetrance into the hypothalamus | brain penetrance / BBB permeability [2]: extremely low | blood glucose, serum insulin and leptin levels, WT versus HDAC6 KO [6]: all reduced equally in the wt and HDAC6 KO group | fat mass and fat %, WT versus HDAC6 KO [6]: significantly lower in both wt and HDAC6 KO groups | food intake, WT versus HDAC6 KO [6]: reduced similarly | glucose tolerance and insulin sensitivity (GTT, ITT), WT versus HDAC6 KO [6]: improved glucose tolerance and increased insulin sensitivity in both wt and the HDAC6 KO mice | lean mass, WT versus HDAC6 KO [6]: not different | body weight, WT versus HDAC6 KO ([6]; 3 weeks, ACY775 10, ACY738 50, Tubastatin A 25 mg/kg/day i.p.): reduced the body weight of the HDAC6 KO mice the same as the wt mice | anti-obesity effects on chronic treatment [7]: did not change Tubastatin A's effects on suppressing feeding or body weight | anti-obesity effects reported by Cakir et al. [8]: reduce food intake, fat mass, hepatic steatosis and improve systemic glucose homeostasis
